For the first experiment, the target named is T1, CCR2 (Homo sapiens, UniProt P41597).
T1 sequence (P41597 1-360 isoform P41597-2): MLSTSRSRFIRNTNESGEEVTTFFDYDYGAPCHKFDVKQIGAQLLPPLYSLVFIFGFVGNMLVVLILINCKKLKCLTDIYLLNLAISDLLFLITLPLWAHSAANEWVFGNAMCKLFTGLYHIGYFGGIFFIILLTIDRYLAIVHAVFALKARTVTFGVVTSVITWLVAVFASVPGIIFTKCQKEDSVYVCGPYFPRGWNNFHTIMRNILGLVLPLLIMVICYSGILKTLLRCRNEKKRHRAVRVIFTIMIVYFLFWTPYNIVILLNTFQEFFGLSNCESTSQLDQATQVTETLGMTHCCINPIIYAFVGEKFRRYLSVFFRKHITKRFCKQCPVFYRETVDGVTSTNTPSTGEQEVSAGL
Description: MCP-1 Receptor Binding Assay in THP-1 Cells. The following applies: MCP-1 binding to CCR2; test concentration of 25 μM, unless indicated otherwise; read-out: % Inhibition Ligand Binding. As to the method:
THP-1 cells were obtained from American Type Culture Collection (Manassas, Va., USA). […] The cell density was maintained between 0.5×10^6 cells/mL.
Cells were then harvested onto a filter plate, dried, and 20 μL of Microscint 20 was added to each well. Plates were counted in a TopCount NXT, Microplate Scintillation & Luminescence Counter (Perkin-Elmer Life Sciences, Inc. Boston, Mass.). Blank values (buffer only) were subtracted from all values and drug treated values were compared to vehicle treated values. 1 μM cold MCP-1 was used for nonspecific binding.
Regarding `C[N+](C)(Cc1cccc(NC(=O)c2cccc(Br)c2)c1)C1CCOCC1` [Cpd 8, [3-(3-bromo-benzoylamino)-benzyl]-dimethyl-(tetrahydro-pyran-4-yl)-ammonium iodide], the inhibition at 25 µM is 34%.

As for `C[N+](C)(Cc1ccc(NC(=O)c2c(Cl)cccc2Cl)cc1)C1CCOCC1` [Cpd 12, [4-(2,6-dichloro-benzoylamino)-benzyl]-dimethyl-(tetrahydro-pyran-4-yl)-ammonium iodide], the inhibition at 25 µM is 38%.

In the case of `Cc1c(Cl)cccc1C(=O)Nc1ccc(C[N+](C)(C)C2CCOCC2)cc1` [Cpd 25, [4-(3-chloro-2-methyl-benzoylamino)-benzyl]-dimethyl-(tetrahydro-pyran-4-yl)-ammonium iodide], the inhibition at 25 µM turned out to be 15%.

Regarding `C[N+](C)(Cc1ccc(NC(=O)C=Cc2ccc(Cl)c(Cl)c2)cc1)C1CCSCC1` [Cpd 41, {4-[3-(3,4-dichloro-phenyl)-acryloylamino]-benzyl}-dimethyl-(tetrahydro-thiopyran-4-yl)-ammonium iodide], the inhibition at 25 µM worked out at 87%.

Still in this experiment, the particulars now being: THP-1 cells, 0.5 nM 125I labeled MCP-1, 2 hours at 30° C.; read-out: Mean Ligand Binding IC50 (inhibition of MCP-1 binding to CCR2).
On to `C[N+](C)(Cc1ccc(CNC(=O)C=Cc2cccc(Br)c2)cc1)C1CCCCC1` [Cpd 1, (4-{[3-(3-bromo-phenyl)-acryloylamino]-methyl}-benzyl)-cyclohexyl-dimethyl-ammonium iodide], for which the IC50 is 2300 nM.

Turning to `C[N+](C)(Cc1ccc(CNC(=O)c2cccc(Br)c2)cc1)C1CCCCC1` [Cpd 2, {4-[(3-bromo-benzoylamino)-methyl]-benzyl}-cyclohexyl-dimethyl-ammonium iodide], the concentration for half-maximal inhibition (IC50) came to 5500 nM.

Take `C[N+](C)(Cc1ccc(CNC(=O)c2cccc(C(F)(F)F)c2)cc1)C1CCCCC1` [Cpd 3, cyclohexyl-dimethyl-{4-[(3-trifluoromethyl-benzoylamino)-methyl]-benzyl}-ammonium iodide]: the half-maximal inhibitory concentration (IC50) amounted to 4300 nM.

As to `C[N+](C)(Cc1ccc(CNC(=O)C=Cc2ccc(Cl)c(Cl)c2)cc1)C1CCOCC1` [Cpd 4, (4-{[3-(3,4-dichloro-phenyl)-acryloylamino]-methyl}-benzyl)-dimethyl-(tetrahydro-pyran-4-yl)-ammonium iodide], the IC50 was 3100 nM.

As for `C[N+](C)(Cc1ccc(CNC(=O)C=Cc2cccc(Br)c2)cc1)C1CCOCC1` [Cpd 5, (4-{[3-(3-bromo-phenyl)-acryloylamino]-methyl}-benzyl)-dimethyl-(tetrahydro-pyran-4-yl)-ammonium iodide], the 50% inhibitory concentration (IC50) stood at 8300 nM.

In the case of `C[N+](C)(Cc1ccc(NC(=O)c2cc(Cl)ccc2Cl)cc1)C1CCOCC1` [Cpd 11, [4-(2,5-dichloro-benzoylamino)-benzyl]-dimethyl-(tetrahydro-pyran-4-yl)-ammonium iodide], the half-inhibitory concentration (IC50) is 3100 nM.

On to `C[N+](C)(Cc1ccc(NC(=O)c2ccc(Cl)c(Cl)c2)cc1)C[C@@H]1CCCO1` [Cpd 15, (2S)-[4-(3,4-dichloro-benzoylamino)-benzyl]-dimethyl-(tetrahydro-furan-2-ylmethyl)-ammonium iodide], for which the half-maximal inhibitory concentration (IC50) was found to be 2000 nM.

As for `C[N+](C)(Cc1ccc(NC(=O)c2ccc(Cl)c(Cl)c2)cc1)C[C@H]1CCCO1` [Cpd 16, (2R)-[4-(3,4-dichloro-benzoylamino)-benzyl]-dimethyl-(tetrahydro-furan-2-ylmethyl)-ammonium iodide], the half-inhibitory concentration (IC50) amounted to 850 nM.

`C[N+](C)(Cc1ccc(NC(=O)c2ccc(Cl)c(Cl)c2)cc1)C1CCSC1` (stereo not drawn) [Cpd 19, [4-(3,4-dichloro-benzoylamino)-benzyl]-dimethyl-(tetrahydro-thien-3-yl)-ammonium iodide]: the IC50 was 5 nM.

`CC[N+](C)(Cc1ccc(NC(=O)c2ccc(Cl)c(Cl)c2)cc1)C1CCOCC1` (stereo not drawn) [Cpd 21, [4-(3,4-dichloro-benzoylamino)-benzyl]-ethyl-methyl-(tetrahydro-pyran-4-yl)-ammonium iodide]: the half-inhibitory concentration (IC50) was determined as 150 nM.

Take `CCC[N+](C)(Cc1ccc(NC(=O)c2ccc(Cl)c(Cl)c2)cc1)C1CCOCC1` (stereo not drawn) [Cpd 22, [4-(3,4-dichloro-benzoylamino)-benzyl]-methyl-propyl-(tetrahydro-pyran-4-yl)-ammonium iodide]: the IC50 was determined as 1600 nM.

As to `COc1ccc(C(=O)Nc2ccc(C[N+](C)(C)C3CCOCC3)cc2)cc1Cl` [Cpd 27, [4-(3-chloro-4-methoxy-benzoylamino)-benzyl]-dimethyl-(tetrahydro-pyran-4-yl)-ammonium iodide], the IC50 is 750 nM.

For `Cc1ccc(C(=O)Nc2ccc(C[N+](C)(C)C3CCOCC3)cc2)cc1Cl` [Cpd 28, [4-(3-chloro-4-methyl-benzoylamino)-benzyl]-dimethyl-(tetrahydro-pyran-4-yl)-ammonium iodide], the IC50 worked out at 460 nM.

Regarding `Cc1cc(Cl)ccc1C(=O)Nc1ccc(C[N+](C)(C)C2CCOCC2)cc1` [Cpd 32, [4-(4-chloro-2-methyl-benzoylamino)-benzyl]-dimethyl-(tetrahydro-pyran-4-yl)-ammonium iodide], the IC50 was 3400 nM.

Consider `C[N+](C)(Cc1ccc(NC(=O)c2ccc(Cl)c(C(F)(F)F)c2)cc1)C1CCOCC1` [Cpd 33, [4-(4-chloro-3-trifluoromethyl-benzoylamino)-benzyl]-dimethyl-(tetrahydro-pyran-4-yl)-ammonium iodide], for which the IC50 stood at 400 nM.

As for `Cc1ccc(Cl)cc1C(=O)Nc1ccc(C[N+](C)(C)C2CCOCC2)cc1` [Cpd 35, [4-(5-chloro-2-methyl-benzoylamino)-benzyl]-dimethyl-(tetrahydro-pyran-4-yl)-ammonium iodide], the IC50 was 400 nM.

For `C[N+](C)(CCc1ccc(NC(=O)c2cccc(Br)c2)cc1)C1CCOCC1` [Cpd 37, {2-[4-(3-bromo-benzoylamino)-phenyl]-ethyl}-dimethyl-(tetrahydro-pyran-4-yl)-ammonium iodide], the 50% inhibitory concentration (IC50) is 10200 nM.

As to `C[N+](C)(Cc1cccc(NC(=O)C=Cc2cccc(Br)c2)c1)C1CCOCC1` [Cpd 38, {3-[3-(3-bromo-phenyl)-acryloylamino]-benzyl}-dimethyl-(tetrahydro-pyran-4-yl)-ammonium iodide], the 50% inhibitory concentration (IC50) stood at 5000 nM.

For `C[N+](C)(Cc1ccc(NC(=O)C=Cc2cc(F)cc(F)c2)cc1)C1CCOCC1` [Cpd 42, {4-[3-(3,5-difluoro-phenyl)-acryloylamino]-benzyl}-dimethyl-(tetrahydro-pyran-4-yl)-ammonium iodide], the half-inhibitory concentration (IC50) was found to be 5700 nM.

In the case of `C[N+](C)(Cc1ccc(NC(=O)C=Cc2cccc(Br)c2)cc1)C1CCOCC1` [Cpd 43, {4-[3-(3-bromo-phenyl)-acryloylamino]-benzyl}-dimethyl-(tetrahydro-pyran-4-yl)-ammonium iodide], the IC50 amounted to 340 nM.

In the case of `C[N+](C)(Cc1ccc(NC(=O)C=Cc2cccc(Br)c2)cc1)C1CCSCC1` [Cpd 44, {4-[3-(3-bromo-phenyl)-acryloylamino]-benzyl}-dimethyl-(tetrahydro-thiopyran-4-yl)-ammonium iodide], the 50% inhibitory concentration (IC50) stood at 14600 nM.

As for `C[N+](C)(Cc1ccc(NC(=O)C=Cc2cccc(Cl)c2)cc1)C1CCOCC1` [Cpd 45, {4-[3-(3-chloro-phenyl)-acryloylamino]-benzyl}-dimethyl-(tetrahydro-pyran-4-yl)-ammonium iodide], the IC50 turned out to be 260 nM.

With `C[N+](C)(Cc1ccc(NC(=O)C=Cc2ccc(Br)cc2)cc1)C1CCOCC1` [Cpd 47, {4-[3-(4-bromo-phenyl)-acryloylamino]-benzyl}-dimethyl-(tetrahydro-pyran-4-yl)-ammonium iodide], the concentration for half-maximal inhibition (IC50) came to 3700 nM.

Values taken from patent publication US7799824B2, “Quaternary salt CCR2 antagonists” (OraPharma, Inc., priority 2004, dated 2010).
